Measured values as given in PubChem BioAssay AID540323 (Johns Hopkins Ion Channel Center, 2011).
Calls of active or inactive are those of the source.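 Rule for the calls: active = peak hERG channel inhibition above 30% at some tested dose, together with a fitted dose response curve; inactive = no hERG inhibition at any dose, or no curve.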

Target: Voltage-gated inwardly rectifying potassium channel KCNH2 (Homo sapiens) (UniProt Q12809)
Experiment: KCNH2 potassium channel blockade – FluxOR Tl flux, hERG cells, CRC 2, selectivity assay for KCNK9 inhibitor project, SAR follow-up (AID 540323)
Details: hERG-expressing cells, FluxOR thallium flux fluorescence; at 30 µM (top of the series); test wells contain dofetilide at its IC70

Chain of Voltage-gated inwardly rectifying potassium channel KCNH2 (Homo sapiens) (Q12809 whole entry, looked up): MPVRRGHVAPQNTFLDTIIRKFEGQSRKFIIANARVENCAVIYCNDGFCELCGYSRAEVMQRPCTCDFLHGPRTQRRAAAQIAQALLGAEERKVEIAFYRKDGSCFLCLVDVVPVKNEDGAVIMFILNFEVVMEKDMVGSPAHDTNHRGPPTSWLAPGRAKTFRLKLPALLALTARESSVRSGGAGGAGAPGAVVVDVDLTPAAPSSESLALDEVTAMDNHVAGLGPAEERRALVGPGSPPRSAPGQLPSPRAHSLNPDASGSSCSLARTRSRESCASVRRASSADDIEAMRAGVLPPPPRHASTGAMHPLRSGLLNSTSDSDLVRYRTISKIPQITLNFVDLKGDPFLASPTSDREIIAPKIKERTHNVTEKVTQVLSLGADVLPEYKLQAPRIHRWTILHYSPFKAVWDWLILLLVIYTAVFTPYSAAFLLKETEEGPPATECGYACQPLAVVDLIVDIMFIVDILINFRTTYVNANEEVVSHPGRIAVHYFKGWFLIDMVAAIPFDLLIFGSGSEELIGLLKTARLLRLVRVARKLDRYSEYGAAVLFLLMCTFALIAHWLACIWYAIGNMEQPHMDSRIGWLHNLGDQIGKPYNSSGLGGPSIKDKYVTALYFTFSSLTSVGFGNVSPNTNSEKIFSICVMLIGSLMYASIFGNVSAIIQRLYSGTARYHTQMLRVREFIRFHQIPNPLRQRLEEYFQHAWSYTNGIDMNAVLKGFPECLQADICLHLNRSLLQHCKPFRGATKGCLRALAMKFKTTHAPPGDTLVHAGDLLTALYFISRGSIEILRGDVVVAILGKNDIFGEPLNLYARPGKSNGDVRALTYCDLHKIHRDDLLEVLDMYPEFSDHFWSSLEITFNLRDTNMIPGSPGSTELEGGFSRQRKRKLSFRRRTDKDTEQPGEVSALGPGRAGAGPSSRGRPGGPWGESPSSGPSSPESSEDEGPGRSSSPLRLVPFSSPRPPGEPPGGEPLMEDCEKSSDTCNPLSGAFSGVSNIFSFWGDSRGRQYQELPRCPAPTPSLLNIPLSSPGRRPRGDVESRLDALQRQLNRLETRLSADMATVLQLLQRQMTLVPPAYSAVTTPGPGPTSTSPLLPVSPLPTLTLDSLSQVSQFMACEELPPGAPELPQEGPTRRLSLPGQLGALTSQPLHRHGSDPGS

`CC(C1CC2CCC1C2)n1c(-c2ccccc2Cl)n[nH]c1=S` (centres undefined) was tested. Which “fluorescence ratio, lower = inhibition” value did it give?
The value was “inactive”.

Which “fluorescence ratio, lower = inhibition” value does the source give for `Cc1cccc(C(=O)Nc2cccc(NC(=O)c3ccc(Cl)cc3)c2)c1` here?
Its value is “inactive”.

How did the “fluorescence ratio, lower = inhibition” value turn out when `COc1ccccc1C(=O)Nc1cccc(NC(=O)c2ccccc2C(C)C)c1` was run?
Its value is “inactive”.

For `CC(c1ccco1)n1c(-c2ccoc2)n[nH]c1=S` (centres undefined), which “fluorescence ratio, lower = inhibition” value is on record?
The value was “inactive”.

Which “fluorescence ratio, lower = inhibition” value does the source give for `COc1cccc(C(=O)Nc2cccc(NC(=O)c3cccc(C)c3)c2)c1` here?
The value was “inactive”.

`Cc1cccc(S(=O)(=O)Nc2cccc(NC(=O)c3ccccc3)c2)c1` was tested. Which “fluorescence ratio, lower = inhibition” value did it give?
The value was “inactive”.

How did the “fluorescence ratio, lower = inhibition” value turn out when `Cc1cccc(C(=O)Nc2cccc(NC(=O)c3ccccc3OC(F)(F)F)c2)c1` was run?
Its value is “inactive”.

`COc1ccccc1NC(=O)c1cccc(NC(=O)c2ccccc2C(F)(F)F)c1` was tested. Which “fluorescence ratio, lower = inhibition” value did it give?
Its value is “inactive”.

Which “fluorescence ratio, lower = inhibition” value does the source give for `CCOc1ccccc1NC(=O)c1cccc(C(=O)NC2CCCC2)c1` here?
Its value is “inactive”.

With `CCOc1ccccc1NC(=O)c1cccc(NC(=O)CC2CCCCC2)c1` as the compound, how does the “fluorescence ratio, lower = inhibition” value read?
The value was “inactive”.

Which “fluorescence ratio, lower = inhibition” value does the source give for `Cc1cccc(C(=O)Nc2cccc(NC(=O)c3ccccc3C(F)(F)F)c2)c1` here?
Its value is “inactive”.

How did the “fluorescence ratio, lower = inhibition” value turn out when `O=C(Nc1cccc(NC(=O)c2cccc(F)c2)c1)c1ccccc1` was run?
The value was “inactive”.

`Cc1cccc(C(=O)Nc2cccc(NC(=O)c3ccco3)c2)c1` was tested. Which “fluorescence ratio, lower = inhibition” value did it give?
The value was “inactive”.

`Cc1ccc(C(=O)Nc2cccc(NC(=O)c3ccccc3)c2)cc1` was tested. Which “fluorescence ratio, lower = inhibition” value did it give?
Its value is “inactive”.

`COc1ccccc1C(=O)Nc1cccc(NC(=O)c2ccccc2OC)c1` was tested. Which “fluorescence ratio, lower = inhibition” value did it give?
The value was “inactive”.

How did the “fluorescence ratio, lower = inhibition” value turn out when `COc1ccc(-c2n[nH]c(=S)n2C(C)C2CC3CCC2C3)cc1` (centres undefined) was run?
Its value is “inactive”.

Which “fluorescence ratio, lower = inhibition” value does the source give for `CCOc1ccccc1NC(=O)c1cccc(NC(=O)c2ccccc2OC)c1` here?
Its value is “inactive”.

How did the “fluorescence ratio, lower = inhibition” value turn out when `Cc1ccccc1C(=O)Nc1cccc(NC(=O)c2ccccc2)c1` was run?
The value was “inactive”.

For `Cc1cccc(C(=O)Nc2ccccc2NC(=O)c2ccccc2)c1`, which “fluorescence ratio, lower = inhibition” value is on record?
Its value is “inactive”.

How did the “fluorescence ratio, lower = inhibition” value turn out when `COc1ccccc1C(=O)Nc1cccc(NC(=O)c2ccccc2C)c1` was run?
The value was “inactive”.

How did the “fluorescence ratio, lower = inhibition” value turn out when `CCOc1ccccc1NC(=O)c1cccc(NC(=O)C2CCCCC2)c1` was run?
The value was “inactive”.

With `COc1ccccc1-c1n[nH]c(=S)n1C(C)C1CC2CCC1C2` (centres undefined) as the compound, how does the “fluorescence ratio, lower = inhibition” value read?
Its value is “inactive”.

How did the “fluorescence ratio, lower = inhibition” value turn out when `CN(C)c1ccc(C(=O)Nc2cccc(NC(=O)c3ccccc3)c2)cc1` was run?
The value was “inactive”.

How did the “fluorescence ratio, lower = inhibition” value turn out when `COc1ccccc1C(=O)Nc1cccc(NC(=O)c2ccccc2OC(F)(F)F)c1` was run?
Its value is “inactive”.

For `COc1ccccc1NC(=O)c1cccc(NC(=O)CC2CCCC2)c1`, which “fluorescence ratio, lower = inhibition” value is on record?
The value was “inactive”.

Which “fluorescence ratio, lower = inhibition” value does the source give for `O=C(Nc1cccc(NC(=O)c2ccc(F)cc2)c1)c1ccccc1` here?
The value was “inactive”.

`O=C(Nc1cccc(NC(=O)c2cccs2)c1)c1ccccc1` was tested. Which “fluorescence ratio, lower = inhibition” value did it give?
The value was “inactive”.

How did the “fluorescence ratio, lower = inhibition” value turn out when `O=C(Nc1cccc(NC(=O)C2CCCCC2)c1)c1ccccc1` was run?
Its value is “inactive”.

How did the “fluorescence ratio, lower = inhibition” value turn out when `S=c1[nH]nc(-c2ccco2)n1CC1CCCCC1` was run?
The value was “inactive”.

Which “fluorescence ratio, lower = inhibition” value does the source give for `O=C(Nc1cccc(NC(=O)c2ccc(C(F)(F)F)cc2)c1)c1ccccc1` here?
Its value is “inactive”.

`CC(C1CC2CCC1C2)n1c(-c2ccccc2)n[nH]c1=S` (centres undefined) was tested. Which “fluorescence ratio, lower = inhibition” value did it give?
Its value is “inactive”.

How did the “fluorescence ratio, lower = inhibition” value turn out when `CCOc1ccccc1NC(=O)c1cccc(NC(=O)c2ccccc2OC(F)(F)F)c1` was run?
Its value is “inactive”.

How did the “fluorescence ratio, lower = inhibition” value turn out when `COc1ccccc1C(=O)Nc1cccc(NC(=O)c2cccc(C)c2)c1` was run?
The value was “inactive”.

Same assay, conditions: hERG-expressing cells, FluxOR thallium flux fluorescence; test wells contain dofetilide at its IC70

Which IC50 does the source give for `Cc1cccc(C(=O)Nc2cccc(NC(=O)c3cccc(C)c3)c2)c1` here?
Its IC50 is 12.4 µM.
